In article PMC12029925, “Kinetics of Manganese Peroxidase Using Simple Phenolic Compounds as Substrates” (Metabolites, 2025):

Tested on: T1, MnP (manganese peroxidase)
T1 construct: gene MNP1; commercial recombinant enzyme (Sigma Aldrich), expressed in corn
Experiment: UV/Vis quinone formation at […] nm, Michaelis-Menten fit
Format: biochemical, Phanerochaete chrysosporium
Conditions: with 1 mM Mn(II); 0.05% H2O2; 0.1 M sodium acetate pH 4.5; 25 °C; 50 µM MnP; 8 min; apparent, oxidation may be mediated by Mn(III)

| SMILES | Km [µM] |
| --- | --- |
| O=C(O)c1cc(O)c(O)c(O)c1 [gallic acid] | 660 |
| Oc1cccc(O)c1O [pyrogallol] | 280 |
